In brackets after ≈: the same amount, converted by molar mass. Where two headings read alike, the source gives them in different places. One block for each compound: values may come before it. Where a SMILES comes first, the peptide text is derived from it. Bridges are numbered along the chain shown (N, C = ends).
Tests used:
[1] = test system: Candida albicans (NCPF 1467); format: cell-based; conditions: for MBC: NCPF 1467, 18 h; for MIC: NCPF 1467, 24 h
Method: (§1) The minimal inhibitory concentrations (MICs) and minimum bactericidal concentrations (MBCs) were evaluated to determine the antimicrobial activity of synthetic peptides. The microorganisms employed in the study are two kinds of Gram-negative bacteria, Escherichia coli (NCTC 10418) and Pseudomonas aeruginosa (ATCC 27853), three kinds of Gram-positive bacteria, Staphylococcus aureus (NCTC 10788), Methicillin-resistant Staphylococcus aureus (MRSA, ATCC 12493) and Enterococcus faecalis (NCTC 12697) and a yeast, Candida albicans (NCPF 1467), as indicated previously. […] The sterilised broth medium was used as the positive control and the microorganism cultured in the medium only was treated as the negative control. […] The MBC results were defined as the lowest bactericidal concentrations of peptide. The antimicrobial activity of peptides was tested by monitoring the absorbance at 550 nm using an ELISA plate reader (Biolise BioTek EL808, Winooski, VT, USA).

[2] = test system: Enterococcus faecalis (NCTC 12697); format: cell-based; conditions: for MBC: NCTC 12697, 18 h; for MIC: NCTC 12697, 24 h
Method: as §1

[3] = test system: Escherichia coli (NCTC 10418); format: cell-based; conditions: for MBC: NCTC 10418, 18 h; for MIC: NCTC 10418, 24 h
Method: as §1

[4] = test system: Methicillin-resistant Staphylococcus aureus (MRSA, ATCC 12493); format: cell-based; conditions: for MBC: ATCC 12493, 18 h; for MIC: ATCC 12493, 24 h
Method: as §1

[5] = test system: Pseudomonas aeruginosa (ATCC 27853); format: cell-based; conditions: for MBC: ATCC 27853, 18 h; for MIC: ATCC 27853, 24 h
Method: as §1

[6] = test system: Staphylococcus aureus (NCTC 10788); format: cell-based; conditions: for MBC: NCTC 10788, 18 h; for MIC: NCTC 10788, 24 h
Method: as §1

[7] = test system: MRSA (ATCC 12493) biofilm; format: cell-based, Staphylococcus aureus
Method: (§2) The anti-biofilm effects of all synthetic peptides were evaluated, which was described in our previous study. The organisms, including S. aureus (NCTC 10788), E. coli (NCTC 10418), MRSA (ATCC 12493), E. faecalis (NCTC 12697) and P. aeruginosa (ATCC 27853), were investigated in this study. Gram-positive bacteria were cultured in the TSB broth and Gram-negative bacteria were cultured in the LB broth. The anti-biofilm effects were determined based on the MBIC and MBEC of all the peptides. For the determination of MBIC, 5 × 10^5 CFU/mL bacterial cultures were incubated with the peptides concentrations (ranging from 1 µM to 512 µM) for 24 h. The sterilised medium and bacterial suspension without any treatment were used as the negative controls and positive controls, respectively. After incubation, wells were rinsed, fixed, stained, washed and dissolved with phosphate buffer saline (PBS), methanol (90%, v/v), crystal violet (0.1%, w/v), sterile deionised water and acetic acid (30%, v/v), respectively. The absorbance of dissolved stain was measured at a 595 nm using a Synergy HT plate reader (Biotech, Minneapolis, MN, USA).
(§3) For the MBEC assay, the peptide concentrations were prepared as above. The bacteria were cultured in the 96 well plate for 24–48 h, which allowed the formation of mature biofilm in the plate. Then, the bacterial culture was removed from the plate. The biofilm was further washed to remove the planktonic bacteria using PBS. Then, the fresh broth that contained different peptide concentrations was added in the plate for incubation of 24 h at 37 °C. After incubation, the plate was stained by crystal violet as mentioned above. The definition of MBIC can be given when compared to the negative control group (≥90%, MBIC90; ≥50%, MBIC50). The definition of the MBEC can be given when compared to the negative control group (≥90%, MBEC90; ≥50%, MBEC50).

[8] = test system: S. aureus (NCTC 10788) biofilm; format: cell-based, Staphylococcus aureus
Method: as §2, §3

[9] = test system: E. faecalis (NCTC 12697) biofilm; format: cell-based, Enterococcus faecalis
Method: as §2, §3

[10] = test system: E. coli (NCTC 10418) biofilm; format: cell-based, Escherichia coli
Method: as §2, §3

[11] = test system: P. aeruginosa (ATCC 27853) biofilm; format: cell-based, Pseudomonas aeruginosa
Method: as §2, §3

MRSA = format: cell-based, Staphylococcus aureus; conditions: 24 h
Method: (§4) The minimal inhibitory concentrations (MICs) and minimum bactericidal concentrations (MBCs) were evaluated to determine the antimicrobial activity of synthetic peptides. The microorganisms employed in the study are two kinds of Gram-negative bacteria, Escherichia coli (NCTC 10418) and Pseudomonas aeruginosa (ATCC 27853), three kinds of Gram-positive bacteria, Staphylococcus aureus (NCTC 10788), Methicillin-resistant Staphylococcus aureus (MRSA, ATCC 12493) and Enterococcus faecalis (NCTC 12697) and a yeast, Candida albicans (NCPF 1467), as indicated previously. For antimicrobial assays, 5 × 10^5 CFU/mL of bacterial suspensions were incubated with the concentrations of the peptides (ranging from 1 µM to 512 µM) for 24 h at 37 °C. The sterilised broth medium was used as the positive control and the microorganism cultured in the medium only was treated as the negative control. […] The MBC results were defined as the lowest bactericidal concentrations of peptide. The antimicrobial activity of peptides was tested by monitoring the absorbance at 550 nm using an ELISA plate reader (Biolise BioTek EL808, Winooski, VT, USA).
(§5) The activity of peptides in the different environmental conditions including different concentrations of NaCl (50, 100 and 150 mM) and MgCl2 (0.5, 1 and 2 mM), pH (6, 7 and 8), temperature (50 °C, 75 °C and 100 °C) and 10% fetal bovine serum (FBS) solution, was evaluated using the broth microdilution assay as described in the antimicrobial activity assay. For the stability test of peptides in the presence of salt, pH and serum, these conditions were adjusted in the fresh medium that was further used to dilute the bacteria suspension. The peptides were also dissolved in such broth and mixed with the bacteria suspension in the 96 well plate. For the thermal stability test, the peptides were dissolved in the water and incubated at different temperature for 15 min before dosing in the plate. The sterilised broth with corresponding conditions was used as the positive controls, and the bacteria suspension without any treatment was used as the negative controls.

S. aureus = format: cell-based, Staphylococcus aureus; conditions: 24 h
Method: as §4, §5

E. faecalis = format: cell-based, Enterococcus faecalis; conditions: 24 h
Method: as §4, §5

C. albicans = format: cell-based, Candida albicans; conditions: 24 h
Method: as §4, §5

E. coli = format: cell-based, Escherichia coli; conditions: 24 h
Method: as §4, §5

P. aeruginosa = format: cell-based, Pseudomonas aeruginosa; conditions: 24 h
Method: as §4, §5

- MIC [1]: 8 µM (≈ 19.6 µg/mL)
- MIC [2]: 8 µM (≈ 19.6 µg/mL)
- MIC [3]: 128 µM (≈ 314 µg/mL)
- MIC [4]: 32 µM (≈ 78.5 µg/mL)
- MIC [5]: 256 µM (≈ 628 µg/mL)
- MIC [6]: 4 µM (≈ 9.81 µg/mL)
- MIC (MRSA; pH 6): 64 µM (≈ 157 µg/mL)
- MIC (MRSA; pH 7): 8 µM (≈ 19.6 µg/mL)
- MIC (MRSA; pH 8): 4 µM (≈ 9.81 µg/mL)
- MIC (S. aureus; pH 6): 8 µM (≈ 19.6 µg/mL)
- MIC (S. aureus; pH 7): 4 µM (≈ 9.81 µg/mL)
- MIC (S. aureus; pH 8): 4 µM (≈ 9.81 µg/mL)
- MIC (E. faecalis; pH 6): 128 µM (≈ 314 µg/mL)
- MIC (E. faecalis; pH 7): 32 µM (≈ 78.5 µg/mL)
- MIC (E. faecalis; pH 8): 16 µM (≈ 39.2 µg/mL)
- MIC (C. albicans; pH 6): 64 µM (≈ 157 µg/mL)
- MIC (C. albicans; pH 7): 16 µM (≈ 39.2 µg/mL)
- MIC (C. albicans; pH 8): 16 µM (≈ 39.2 µg/mL)
- MIC (E. coli; pH 6): 32 µM (≈ 78.5 µg/mL)
- MIC (E. coli; pH 7): 32 µM (≈ 78.5 µg/mL)
- MIC (E. coli; pH 8): 128 µM (≈ 314 µg/mL)
- MIC (P. aeruginosa; pH 6): 128 µM (≈ 314 µg/mL)
- MIC (P. aeruginosa; pH 7): 256 µM (≈ 628 µg/mL)
- MIC (P. aeruginosa; pH 8): 256 µM (≈ 628 µg/mL)
Structure (SMILES): CC[C@H](C)[C@H](NC(=O)CNC(=O)[C@@H]1CCCN1C(=O)[C@H](CC(C)C)NC(=O)[C@@H](N)Cc1ccccc1)C(=O)N[C@@H](CC(C)C)C(=O)N[C@@H](CCCCN)C(=O)N[C@H](C(=O)N[C@@H](C)C(=O)N[C@@H](C)C(=O)N[C@@H](CC(N)=O)C(=O)N[C@H](C(=O)N[C@H](C(=O)N1CCC[C@H]1C(=O)NCC(=O)N[C@H](C(=O)N[C@H](C(=O)N[C@H]1CSSC[C@@H](C(=O)O)NC(=O)[C@H](CCCCN)NC(=O)[C@H](CCCCN)NC(=O)[C@H]([C@@H](C)O)NC(=O)[C@H]([C@@H](C)CC)NC(=O)[C@H](C)NC1=O)[C@@H](C)CC)C(C)C)C(C)C)C(C)C)C(C)C [Brevinin-1OS] (H-FLPGILKVAANVVPGVICAITKKC-OH; disulfide 18-24)
- MBC [1]: 64 µM (≈ 157 µg/mL)
- MBC [2]: 16 µM (≈ 39.2 µg/mL)
- MBC [3]: > 512 µM
- MBC [4]: 32 µM (≈ 78.5 µg/mL)
- MBC [5]: > 512 µM
- MBC [6]: 16 µM (≈ 39.2 µg/mL)
- MBEC50 [7]: 64 µM
- MBEC90 [7]: 256 µM
- MBIC50 ([7]; ATCC 12493, 24 h): 8 µM
- MBIC90 ([7]; ATCC 12493, 24 h): 32 µM
- MBEC50 [8]: 32 µM
- MBEC90 [8]: 64 µM
- MBIC50 ([8]; NCTC 10788, 24 h): 4 µM
- MBIC90 ([8]; NCTC 10788, 24 h): 4 µM
- MBEC50 [9]: 256 µM
- MBEC90 [9]: > 512 µM
- MBIC50 ([9]; NCTC 12697, 24 h): 32 µM
- MBIC90 ([9]; NCTC 12697, 24 h): 64 µM
- MBEC50 [10]: > 512 µM
- MBEC90 [10]: > 512 µM
- MBIC50 ([10]; NCTC 10418, 24 h): 128 µM
- MBIC90 ([10]; NCTC 10418, 24 h): 128 µM
- MBEC50 [11]: 512 µM
- MBEC90 [11]: 512 µM
- MBIC50 ([11]; ATCC 27853, 24 h): 256 µM
- MBIC90 ([11]; ATCC 27853, 24 h): 256 µM

- MIC [1]: > 512 µM
- MIC [2]: > 512 µM
- MIC [3]: > 512 µM
- MIC [4]: > 512 µM
- MIC [5]: > 512 µM
- MIC [6]: > 512 µM
Structure (SMILES): CC[C@H](C)[C@H](NC(=O)[C@@H](NC(=O)CNC(=O)[C@@H]1CCCN1C(=O)[C@@H](NC(=O)[C@@H](NC(=O)[C@H](CC(N)=O)NC(=O)[C@H](C)NC(=O)[C@H](C)NC(=O)[C@@H](NC(=O)[C@H](CCCCN)NC(=O)[C@H](CC(C)C)NC(=O)[C@@H](NC(=O)CNC(=O)[C@@H]1CCCN1C(=O)[C@H](CC(C)C)NC(=O)[C@@H](N)Cc1ccccc1)[C@@H](C)CC)C(C)C)C(C)C)C(C)C)C(C)C)C(=O)O [OSa] (H-FLPGILKVAANVVPGVI-OH)
- MBC [1]: > 512 µM
- MBC [2]: > 512 µM
- MBC [3]: > 512 µM
- MBC [4]: > 512 µM
- MBC [5]: > 512 µM
- MBC [6]: > 512 µM

— article PMC7472354, “Enhanced Antimicrobial Activity of N-Terminal Derivatives of a Novel Brevinin-1 Peptide from The Skin Secretion of Odorrana schmackeri” (Toxins, 2020)
